# Results published in US20240207302A1, “ANTIVIRAL COMPOUNDS, METHODS FOR THE MANUFACTURING OF COMPOUNDS, ANTIVIRAL PHARMACEUTICAL COMPOSITION, USE OF THE COMPOUNDS AND METHOD FOR THE ORAL TREATMENT OF CORONAVIRUS INFECTION AND RELATED DISEASES THEREOF” (priority 2021, published 2024).
# pEC50: −log10 of the molar value. Where two headings read alike, the source gives them in different places.
# How the values were obtained:
# [1] = Pharmacokinetics of MB-905 in three pre-formulations in mice; assay type: in vivo
# Description: FIG. 21. Pharmacokinetics of MB-905 in three pre-formulations in mice.
# Thus, the pre-formulation was used for most subsequent in vivo studies.
# [2] = Pharmacokinetics of MB-905 in plasma of the rat; assay type: in vivo
# Experimental: The pharmacokinetic assay was performed by using mice of the CDI strain (20-30 g) or rat Sprague Dawley (250-300 g) of both sexes from the Center of Innovation and Preclinical Studies (CIEnP) vivarium. […] After oral […] administration, blood was collected at times of 0.25, 0.5, 1, 2, 4, 8 and 24, while after intravenous administration the collection times were 0.083, 0.25, 0.5, 1, 2 and 4 hours. […] The pharmacokinetic parameters evaluated were: AUC (AUC 0-T or, AUC 0-∞), Cmax, Tmax, T1/2, volume of distribution, clearance, elimination constant and bioavailability.
# [3] = Pharmacokinetics of MB-905 in plasma of mice
# Description: FIG. 8A to 8F. […] The number of animals is shown in each figure legends. The vertical lines represent the mean±the standard error deviation.
# All animals were maintained under SPF (Specific Pathogen Frec) animal conditions and were obtained from CIEnP facility, whose breeding colonies were purchased from Charles River Laboratories (USA). […] The samples collected from each animal and at each collection time were processed and analyzed individually. For the analysis of plasma and lung, UPLC-MS/MS equipment was used, whose system consists of a Xevo TQS mass spectrometer with a triple-quadrupole mass analyzer, from Waters. The mass spectrometer is coupled to a high-performance liquid chromatograph (Acquity H-Class). The acquisition and treatment of the data were performed with the MassLynx software. […] The calculation of bioavailability was performed using the following equation: F (%)=[(Intravenous dose×oral AUC)/(Oral dose×Intravenous AUC)]×100.
# TNF-α and IL-6 = TNF-α and IL-6 levels in supernatant of SARS-COV-2-infected human primary monocytes; assay type: cell-based; settings: 24 h
# Experimental: (§1) FIG. 5A, 5B and 5C. The compounds impair SARS-COV-2 RNA synthesis and SARS-COV-2-induced release of inflammatory mediators in human primary monocytes.
# (§2) Human primary monocytes were obtained after 3 h of plastic adherence of peripheral blood mononuclear cells (PBMCs). PBMCs were isolated from healthy donors by density gradient centrifugation (Ficoll-Paque, GE Healthcare). PBMCs (2.0×10^6 cells) were plated onto 48-well plates (NalgeNunc) in RPMI-1640 without serum for 2 to 4 h. Non-adherent cells were removed, and the remaining monocytes were maintained in DMEM with 5% human serum (HS; Millipore) and penicillin/streptomycin. Monocytes were infected at MOI of 0.1. After 1 h inoculation period, cells were washed with phosphate saline buffer (PBS) to remove unbounded viruses and treated with 1 μM of the indicated compounds. After 24 h after infection, cell monolayers werc lysed total viral RNA was extracted, quantitative RT-PCR was performed, to detect the SARS-COV-2 and the housekeeping gene RNAse P.
# SARS-COV-2 [4] = tested on: SARS-COV-2
# SARS-COV-2 [5] = test: SARS-COV-2 RNA loads in human primary monocytes; assay type: cell-based; settings: 24 h
# Experimental: as §1, §2
# [6] = Cardiovascular safety pharmacology by telemetry; settings: rats; 50 or 250 mg/Kg oral, single or repeated (7 days)
# Experimental: Data are presented as mean±S.E.M. Statistical analysis was performed by two-way ANOVA followed by Bonferroni post hoc test. n=4-6 animals per group.
# [7] = mouse, plasma, po, 3 mg/kg, 5% Carboxymethylcellulose, 3 mg/kg (v.o.)
# [8] = mouse, plasma, po, 3 mg/kg, 5% Tween80 + 95% PEG400, 3 mg/kg (p.o.)
# [9] = mouse, plasma, po, 3 mg/kg, 5% ethanol, 30% Propylene Glycol, 45% PEG 400, 20% water, 3 mg/kg (v.o.)
# [10] = mouse, plasma, po, 30 mg/kg, 5% Carboxymethylcellulose, 30 mg/kg (p.o.)
# [11] = mouse, plasma, po, 30 mg/kg, 5% Tween80 + 95% PEG400, 30 mg/kg (p.o.)
# [12] = mouse, plasma, po, 30 mg/kg, 5% ethanol, 30% Propylene Glycol, 45% PEG 400, 20% water, 30 mg/kg (p.o.)
# [13] = mouse, plasma, po, 550 mg/kg, 5% ethanol, 30% Propylene Glycol, 45% PEG 400, 20% water, 550 mg/kg (p.o.)
# [14] = both sexes, Sprague Dawley, rat, plasma, po, 10 mg/kg, 10 mg/kg (v.o.)
# [15] = both sexes, Sprague Dawley, rat, plasma, po, 30 mg/kg, 30 mg/kg (v.o.)
# [16] = both, CD1, mouse, plasma, iv, 3 mg/kg
# [17] = both, CD1, mouse, plasma, po, 30 mg/kg
# [18] = Severe acute respiratory syndrome coronavirus 2, Calu-3, 72 h, Calu-3 (MOI 0.5 72 h), daily treatment
# [19] = Severe acute respiratory syndrome coronavirus 2, Calu-3, 72 h, Calu-3 (MOI 0.5 72 h), single moment treatment
# [20] = Severe acute respiratory syndrome coronavirus 2, Calu-3, Table 6, Calu-3, daily treatment
# [21] = Severe acute respiratory syndrome coronavirus 2, Calu-3, Table 6, Calu-3, single treatment
smiles,measurement,setting,value
"c1coc(CNc2ncnc3[nH]cnc23)c1 [MB-905, kinetin]",Cmax,"[1]; 5% ethanol, 30% Propylene Glycol, 45% PEG 400, 20% water, 30 mg/kg (p.o.)",569.97 ng/mL
same,Cmax,"[1]; 5% ethanol, 30% Propylene Glycol, 45% PEG 400, 20% water, 550 mg/kg (p.o.)",1053.37 ng/mL
same,Tmax,"[1]; CD1, mouse, plasma, po, 3 mg/kg, 5% Carboxymethylcellulose, 3 mg/kg (v.o.)",0.25 h
same,Cmax,"[1]; CD1, mouse, plasma, po, 3 mg/kg, 5% Carboxymethylcellulose, 3 mg/kg (v.o.), read-out: Cmax",70.2 ng/mL
same,Tmax,"[1]; CD1, mouse, plasma, po, 3 mg/kg, 5% Tween80 + 95% PEG400, 3 mg/kg (p.o.)",0.25 h
same,Cmax,"[1]; CD1, mouse, plasma, po, 3 mg/kg, 5% Tween80 + 95% PEG400, 3 mg/kg (p.o.), read-out: Cmax",60.8 ng/mL
same,Tmax,"[1]; CD1, mouse, plasma, po, 3 mg/kg, 5% ethanol, 30% Propylene Glycol, 45% PEG 400, 20% water, 3 mg/kg (v.o.)",0.25 h
same,Cmax,"[1]; CD1, mouse, plasma, po, 3 mg/kg, 5% ethanol, 30% Propylene Glycol, 45% PEG 400, 20% water, 3 mg/kg (v.o.), read-out: Cmax",64 ng/mL
same,Tmax,"[1]; CD1, mouse, plasma, po, 30 mg/kg, 5% Carboxymethylcellulose, 30 mg/kg (p.o.)",0.25 h
same,Cmax,"[1]; CD1, mouse, plasma, po, 30 mg/kg, 5% Carboxymethylcellulose, 30 mg/kg (p.o.), read-out: Cmax",504 ng/mL
same,Tmax,"[1]; CD1, mouse, plasma, po, 30 mg/kg, 5% Tween80 + 95% PEG400, 30 mg/kg (p.o.)",0.25 h
same,Cmax,"[1]; CD1, mouse, plasma, po, 30 mg/kg, 5% Tween80 + 95% PEG400, 30 mg/kg (p.o.), read-out: Cmax",507 ng/mL
same,Tmax,"[1]; CD1, mouse, plasma, po, 300 mg/kg, 5% Carboxymethylcellulose, 300 mg/kg (p.o.)",8 h
same,Cmax,"[1]; CD1, mouse, plasma, po, 300 mg/kg, 5% Carboxymethylcellulose, 300 mg/kg (p.o.), read-out: Cmax",1020 ng/mL
same,Tmax,"[1]; CD1, mouse, plasma, po, 300 mg/kg, 5% Tween80 + 95% PEG400, 300 mg/kg (p.o.)",0.25 h
same,Cmax,"[1]; CD1, mouse, plasma, po, 300 mg/kg, 5% Tween80 + 95% PEG400, 300 mg/kg (p.o.), read-out: Cmax",1030 ng/mL
same,AUC,[1]; [7],107 ng·h/mL
same,half-life,[1]; [7],2.18 h
same,AUC,[1]; [8],153 ng·h/mL
same,half-life,[1]; [8],2.63 h
same,AUC,[1]; [9],98.4 ng·h/mL
same,half-life,[1]; [9],1.92 h
same,AUC,[1]; [10],525 ng·h/mL
same,half-life,[1]; [10],1.67 h
same,AUC,[1]; [11],1110 ng·h/mL
same,half-life,[1]; [11],2.27 h
same,AUC,[1]; [12],763 ng·h/mL
same,Tmax,[1]; [12],0.25 h
same,half-life,[1]; [12],3.61 h
same,AUC,"[1]; mouse, plasma, po, 300 mg/kg, 5% Carboxymethylcellulose, 300 mg/kg (p.o.)",14800 ng·h/mL
same,AUC,"[1]; mouse, plasma, po, 300 mg/kg, 5% Tween80 + 95% PEG400, 300 mg/kg (p.o.)",11500 ng·h/mL
same,AUC,[1]; [13],11600 ng·h/mL
same,Tmax,[1]; [13],1 h
same,half-life,[1]; [13],8.63 h
same,F,[2]; 3 mg/kg (i.v.),100%
same,Cmax,"[2]; 3 mg/kg (i.v.), 3 mg/kg",123.61 ng/mL
same,Vz,"[2]; 3 mg/kg (i.v.), 3 mg/kg",10.40 L/kg
same,CL,[2]; 10 mg/kg (v.o.),241.09 mL/min/kg
same,Ke,[2]; 10 mg/kg (v.o.),0.47 h⁻¹
same,Vz,[2]; 10 mg/kg (v.o.),30.37 L/kg
same,Cmax,"[2]; 10 mg/kg (v.o.), 10 mg/kg",549.96 ng/mL
same,F,"[2]; 10 mg/kg (v.o.), 10 mg/kg",98.8%
same,T1/2,"[2]; 10 mg/kg (v.o.), 10 mg/kg",1.45 h
same,F,[2]; 30 mg/kg (v.o.),64.7%
same,Ke,[2]; 30 mg/kg (v.o.),0.18 h⁻¹
same,Vz,[2]; 30 mg/kg (v.o.),109.18 L/kg
same,CL,"[2]; 30 mg/kg (v.o.), 30 mg/kg",330.57 mL/min/kg
same,Cmax,"[2]; both sexes, Sprague Dawley, rat, plasma, iv, 3 mg/kg, 3 mg/kg (i.v.), read-out: Cmax",99.4 ng/mL
same,Vd,"[2]; both sexes, Sprague Dawley, rat, plasma, iv, 3 mg/kg, 3 mg/kg (i.v.), read-out: Vz",13.4 L/kg
same,AUC,[2]; [14],762 ng·h/mL
same,AUC(0-t),[2]; [14],666 ng·h/mL
same,Tmax,[2]; [14],0.25 h
same,half-life,[2]; [14],1.46 h
same,Cmax,"[2]; both sexes, Sprague Dawley, rat, plasma, po, 10 mg/kg, 10 mg/kg (v.o.), read-out: Cmax",545 ng/mL
same,AUC,[2]; [15],1500 ng·h/mL
same,AUC(0-t),[2]; [15],1500 ng·h/mL
same,Cmax,[3]; [16],135 ng/mL
same,Vd,[3]; [16],19.4 L/kg
same,AUC(0-t),[3]; [17],366 ng·h/mL
same,Cmax,[3]; [17],570 ng/mL
same,half-life,[3]; [17],1.1 h
same,Cmax,"[3]; both, CD1, mouse, plasma, po, 550 mg/kg",1050 ng/mL
same,AUCall,"[3]; mice plasma, 3 mg/kg (i.v.)",66.41 ng·h/mL
same,CL,"[3]; mice plasma, 3 mg/kg (i.v.)",918.38 mL/min/kg
same,Cmax,"[3]; mice plasma, 3 mg/kg (i.v.)",155.16 ng/mL
same,F,"[3]; mice plasma, 3 mg/kg (i.v.)",100%
same,Ke,"[3]; mice plasma, 3 mg/kg (i.v.)",3.09 h⁻¹
same,T1/2,"[3]; mice plasma, 3 mg/kg (i.v.)",0.22 h
same,Tmax,"[3]; mice plasma, 3 mg/kg (i.v.)",4.98 min
same,Vz,"[3]; mice plasma, 3 mg/kg (i.v.)",19.04 L/kg
same,AUClast,"[3]; mice plasma, 3 mg/kg (i.v.), 3 mg/kg",55.58 ng·h/mL
same,CL,"[3]; mice plasma, 30 mg/kg (v.o.)",1060.15 mL/min/kg
same,Ke,"[3]; mice plasma, 30 mg/kg (v.o.)",0.62 h⁻¹
same,Vz,"[3]; mice plasma, 30 mg/kg (v.o.)",102.21 L/kg
same,F,"[3]; mice plasma, 30 mg/kg (v.o.), 30 mg/kg","53,5%"
same,Ke,"[3]; mice plasma, 550 mg/kg (v.o.)",0.25 h⁻¹
same,F,"[3]; mice plasma, 550 mg/kg (v.o.), 550 mg/kg",36.1%
same,SARS-CoV-2-induced enhancement of IL-6 levels in culture supernatant,TNF-α and IL-6,reduced
same,SARS-CoV-2-induced enhancement of TNF-α levels in culture supernatant,TNF-α and IL-6,reduced
same,pEC50,SARS-COV-2 [4]; [18],7.52
same,EC90,SARS-COV-2 [4]; [18],2100 nM
same,pEC50,SARS-COV-2 [4]; [19],6.51
same,EC90,SARS-COV-2 [4]; [19],2800 nM
same,pEC50,SARS-COV-2 [4]; [20],7.52
same,EC90,SARS-COV-2 [4]; [20],2100 nM
same,pEC50,SARS-COV-2 [4]; [21],6.51
same,EC90,SARS-COV-2 [4]; [21],2800 nM
same,anti-coronavirus activity with simultaneous adenine,"SARS-COV-2 [4]; calu-3, adenine at 10 μM",prevented
same,anti-coronavirus activity (SARS-COV-2 replication),"SARS-COV-2 [4]; calu-3, treatment just after inoculation",concentration dependent inhibition
same,viral RNA levels/cell,SARS-COV-2 [5],reduced
same,"cardiovascular hemodynamic parameters (systolic, diastolic, mean blood pressure, heart rate)",[6],did not induces any changes
